From EP0517918B1, “MONOCLONAL ANTIBODY AGAINST CARDIAC GLYCOSIDE AND UTILIZATION THEREOF” (SUNTORY LIMITED, priority 1990, dated 1992) come the findings set out here.

This assay concerns Na^+,K^+-ATPase. The experiment in a line: Na^+,K^+-ATPase inhibition rate (potassium ion concentration antagonist type), molybdate colorimetry. The class given is biochemical. The conditions noted are these: 1 µM. As to the method:
It is known that ouabain inhibits the enzyme activity of Na^+,K^+-ATPase. As such the Na^+,K^+-ATPase inhibitory activity of the various substances used as antigens in Example 4, Part B was examined to investigate the correlation between that inhibitory activity and reactivity with the monoclonal antibody of the present invention.
1.35 ml of TES buffer (80 mM TES, 200 mM NaCl, 9 mM MgSO4·7H2O and 10 mM EGTA adjusted to pH 7.4 with NaOH), 0.27 ml of 0.2% ODG (octyl-D-glucoside), 0.27 ml of 10^-5 M sample (10^-6 M during reaction), and 0.44 ml of distilled water were added to a plastic test tube which was then placed in an incubator at 25°C. 0.27 ml of 1 mM or 100 mM KCl and 50 µl of ATPase solution (stock solution, in which 5 units of […] (Sigma) were dissolved in 2 ml of 10 mM TES (pH 7.4) diluted 2.5 times with 10 mM TES (pH 7.4) as necessary) were added followed by incubation for 5 - 10 minutes at 25°C. Next, the reaction was started by addition of 50 µl of ATP solution (71 mg of ATP dissolved in 5 ml of 10 mM TES (pH 7.4) (Sigma)).
The reaction was allowed to proceed at 25°C for 30 minutes in the case of using 1 mM KCl (0.1 mM in the reaction solution), and for 10 minutes in the case of using 100 mM KCl (10 mM in the reaction solution). Next, 0.03 ml of 1% Triton™ X-100 solution (in distilled water) and 0.3 ml of 2.5% AmM solution (5 g of (NH4)6Mo7O24·4H2O dissolved in 6 N H2SO4 and brought to a volume of 200 ml) were mixed immediately prior to use (for a total of 0.33 ml) and then added to the reaction solution followed by incubation for 10 minutes at 25°C to stop the reaction and develop color. The absorbance of the reaction solution was then measured at 660 nm and the Na^+,K^+-ATPase inhibition rate (%) was calculated according to the following formula. Na^+ ,K^+ -ATPase Inhibition Rate (%) = [(Ao -Aw )/Ao ] × 100 [formula] Ao: Na^+,K^+-ATPase activity when sample not added Aw: Na^+,K^+-ATPase activity when sample added

Setting [1] is: 0.1 mM K^+ in the reaction solution, sample 10^-6 M during reaction, 30 minutes at 25°C.
Where [2] appears, read: 10 mM K^+ in the reaction solution, sample 10^-6 M during reaction, 10 minutes at 25°C.

As for `C[C@H]1CCCC[C@H]1O` (relative stereo) [cis-2-Methylcyclohexanol], the “(Na^+,K^+-ATPase Inhibition) Rate (%) 0.1 mM K^+” value under setting [1] was -2%. In addition, under setting [2], the “(Na^+,K^+-ATPase Inhibition) Rate (%) 10 mM K^+” value was 2%.

Turning to `O=C1C=CCO1` [2(5H)-Furanone], under setting [1], the “(Na^+,K^+-ATPase Inhibition) Rate (%) 0.1 mM K^+” value is 6%. Further, the “(Na^+,K^+-ATPase Inhibition) Rate (%) 10 mM K^+” value under setting [2] is listed as -5%.

Consider `CCCCC/C=C\C/C=C\C/C=C\C/C=C\CCCC(=O)O` [Arachidonic acid], for which the “(Na^+,K^+-ATPase Inhibition) Rate (%) 0.1 mM K^+” value under setting [1] is -5%. Further, the “(Na^+,K^+-ATPase Inhibition) Rate (%) 10 mM K^+” value under setting [2] is -2%.

`C[C@H](CCC(=O)O)[C@H]1CC[C@H]2[C@@H]3[C@H](O)C[C@@H]4C[C@H](O)CC[C@]4(C)[C@H]3C[C@H](O)[C@]12C` [Cholic acid]: the “(Na^+,K^+-ATPase Inhibition) Rate (%) 0.1 mM K^+” value under setting [1] amounted to 2%. Further, under setting [2], the “(Na^+,K^+-ATPase Inhibition) Rate (%) 10 mM K^+” value is -3%.

Regarding `C[C@]12C[C@H](O)[C@H]3[C@@H](CCC4=CC(=O)CC[C@@]43C)[C@@H]1CC[C@@H]2C(=O)CO` [Corticosterone], under setting [1], the “(Na^+,K^+-ATPase Inhibition) Rate (%) 0.1 mM K^+” value is given as -4%. Also, the “(Na^+,K^+-ATPase Inhibition) Rate (%) 10 mM K^+” value under setting [2] is 1%.

On to `OC1CCCCC1` [Cyclohexanol], for which, under setting [1], the “(Na^+,K^+-ATPase Inhibition) Rate (%) 0.1 mM K^+” value was -3%. Under setting [2], the “(Na^+,K^+-ATPase Inhibition) Rate (%) 10 mM K^+” value is listed as 0.4%.

As to `C[C@]12CC[C@H](O)C[C@H]1CC[C@@H]1[C@@H]2CC[C@]2(C)[C@@H](C3=CC(=O)OC3)CC[C@]12O` [Digitoxigenin], the “(Na^+,K^+-ATPase Inhibition) Rate (%) 0.1 mM K^+” value stood at 44% and the “(Na^+,K^+-ATPase Inhibition) Rate (%) 10 mM K^+” value came out at 17%.

On to `C[C@H]1O[C@@H](O[C@H]2[C@@H](O)C[C@H](O[C@H]3[C@@H](O)C[C@H](O[C@H]4CC[C@@]5(C)[C@H](CC[C@@H]6[C@@H]5CC[C@]5(C)[C@@H](C7=CC(=O)OC7)CC[C@]65O)C4)O[C@@H]3C)O[C@@H]2C)C[C@H](O)[C@@H]1O` [Digitoxin], for which the “(Na^+,K^+-ATPase Inhibition) Rate (%) 0.1 mM K^+” value under setting [1] stood at 41%. The “(Na^+,K^+-ATPase Inhibition) Rate (%) 10 mM K^+” value under setting [2] was 11%.

`C[C@H]1O[C@@H](O[C@H]2[C@@H](O)C[C@H](O[C@H]3[C@@H](O)C[C@H](O[C@H]4CC[C@@]5(C)[C@H](CC[C@@H]6[C@@H]5C[C@@H](O)[C@]5(C)[C@@H](C7=CC(=O)OC7)CC[C@]65O)C4)O[C@@H]3C)O[C@@H]2C)C[C@H](O)[C@@H]1O` [Digoxin]: the “(Na^+,K^+-ATPase Inhibition) Rate (%) 0.1 mM K^+” value was 45% and the “(Na^+,K^+-ATPase Inhibition) Rate (%) 10 mM K^+” value worked out at 18%.

Regarding `C[C@]12CCC(=O)C=C1CC[C@@H]1[C@@H]2[C@@H](O)C[C@@]2(C)[C@H]1CC[C@]2(O)C(=O)CO` [Hydrocortisone], the “(Na^+,K^+-ATPase Inhibition) Rate (%) 0.1 mM K^+” value under setting [1] is -3%. The “(Na^+,K^+-ATPase Inhibition) Rate (%) 10 mM K^+” value under setting [2] was -1%.

In the case of `C[C@@H]1OC(O)[C@H](O)[C@H](O)[C@H]1O` (stereo partly drawn) [L-Rhamnose], the “(Na^+,K^+-ATPase Inhibition) Rate (%) 0.1 mM K^+” value under setting [1] is listed as -2%. Also, the “(Na^+,K^+-ATPase Inhibition) Rate (%) 10 mM K^+” value under setting [2] is recorded as -4%.

Take `CCCCC/C=C\C/C=C\CCCCCCCC(=O)O` [Linoleic acid]: the “(Na^+,K^+-ATPase Inhibition) Rate (%) 0.1 mM K^+” value under setting [1] is on record as -7%. Under setting [2], the “(Na^+,K^+-ATPase Inhibition) Rate (%) 10 mM K^+” value is -5%.

For `CCCCCCCCCCCCCCCCOC[C@@H](O)COP(=O)([O-])OCC[N+](C)(C)C` [LisoPAF, L-α-lysophosphatidylcholine-γ-O-hexadecyl], the “(Na^+,K^+-ATPase Inhibition) Rate (%) 0.1 mM K^+” value under setting [1] is given as -2%. Also, the “(Na^+,K^+-ATPase Inhibition) Rate (%) 10 mM K^+” value under setting [2] stood at 0.4%.

Turning to `C[C@]12C[C@@H](O)[C@H]3[C@@H](CC[C@]4(O)C[C@@H](O)C[C@@H](O)[C@]34CO)[C@@]1(O)CC[C@@H]2C1=CC(=O)OC1` [Ouabagenin], under setting [1], the “(Na^+,K^+-ATPase Inhibition) Rate (%) 0.1 mM K^+” value was 44%. The “(Na^+,K^+-ATPase Inhibition) Rate (%) 10 mM K^+” value under setting [2] was 6%.

Turning to `C[C@@H]1O[C@@H](O[C@H]2C[C@@H](O)[C@]3(CO)[C@H]4[C@H](O)C[C@]5(C)[C@@H](C6=CC(=O)OC6)CC[C@]5(O)[C@@H]4CC[C@]3(O)C2)[C@H](O)[C@H](O)[C@H]1O` [Ouabain], the “(Na^+,K^+-ATPase Inhibition) Rate (%) 0.1 mM K^+” value under setting [1] was determined as 41%. Further, under setting [2], the “(Na^+,K^+-ATPase Inhibition) Rate (%) 10 mM K^+” value turned out to be 18%.

Consider `CCCCCCCCCCCCCCCCOC[C@H](COP(=O)([O-])OCC[N+](C)(C)C)OC(C)=O` [PAF, L-d-phosphatidylcholine-β-aceyl-γ-O-hexadecyl], for which, under setting [1], the “(Na^+,K^+-ATPase Inhibition) Rate (%) 0.1 mM K^+” value is recorded as -3%. Under setting [2], the “(Na^+,K^+-ATPase Inhibition) Rate (%) 10 mM K^+” value is recorded as 1%.

As for `CC(=O)[C@H]1CC[C@H]2[C@@H]3CCC4=CC(=O)CC[C@]4(C)[C@H]3CC[C@]12C` [Progesterone], the “(Na^+,K^+-ATPase Inhibition) Rate (%) 0.1 mM K^+” value under setting [1] was 3%. Moreover, under setting [2], the “(Na^+,K^+-ATPase Inhibition) Rate (%) 10 mM K^+” value is 5%.

On to `C[C@]12CC[C@H](O)C[C@@H]1CC[C@@H]1[C@@H]2CC[C@]2(C)[C@@H](C3=CC(=O)OC3)CC[C@]12O` [Uzarigenin], for which the “(Na^+,K^+-ATPase Inhibition) Rate (%) 0.1 mM K^+” value was 42% and the “(Na^+,K^+-ATPase Inhibition) Rate (%) 10 mM K^+” value stood at 6%.

Turning to `C1CC[C@H]2CCC[C@H]2C1` [cis-Hydrindane], the “(Na^+,K^+-ATPase Inhibition) Rate (%) 0.1 mM K^+” value under setting [1] is given as -1%. Also, the “(Na^+,K^+-ATPase Inhibition) Rate (%) 10 mM K^+” value under setting [2] amounted to 0.5%.

Consider `C[C@]12CCC(=O)C=C1CC[C@@H]1[C@@H]2[C@@H](O)C[C@]2(C=O)[C@@H](C(=O)CO)CC[C@@H]12` [α-Aldosterone], for which the “(Na^+,K^+-ATPase Inhibition) Rate (%) 0.1 mM K^+” value under setting [1] was 1%. Moreover, the “(Na^+,K^+-ATPase Inhibition) Rate (%) 10 mM K^+” value under setting [2] is given as -11%.
